Measurements published in ChEMBL document CHEMBL1129583, “Nonclassical 2,4-diamino-8-deazafolate analogues as inhibitors of dihydrofolate reductases from rat liver, Pneumocystis carinii, and Toxoplasma gondii” (J Med Chem, 1996).

Columns and labels:
[1] = target: T1, Bifunctional dihydrofolate reductase-thymidylate synthase (Toxoplasma gondii, UniProt Q07422)
T1 sequence (Q07422 whole entry): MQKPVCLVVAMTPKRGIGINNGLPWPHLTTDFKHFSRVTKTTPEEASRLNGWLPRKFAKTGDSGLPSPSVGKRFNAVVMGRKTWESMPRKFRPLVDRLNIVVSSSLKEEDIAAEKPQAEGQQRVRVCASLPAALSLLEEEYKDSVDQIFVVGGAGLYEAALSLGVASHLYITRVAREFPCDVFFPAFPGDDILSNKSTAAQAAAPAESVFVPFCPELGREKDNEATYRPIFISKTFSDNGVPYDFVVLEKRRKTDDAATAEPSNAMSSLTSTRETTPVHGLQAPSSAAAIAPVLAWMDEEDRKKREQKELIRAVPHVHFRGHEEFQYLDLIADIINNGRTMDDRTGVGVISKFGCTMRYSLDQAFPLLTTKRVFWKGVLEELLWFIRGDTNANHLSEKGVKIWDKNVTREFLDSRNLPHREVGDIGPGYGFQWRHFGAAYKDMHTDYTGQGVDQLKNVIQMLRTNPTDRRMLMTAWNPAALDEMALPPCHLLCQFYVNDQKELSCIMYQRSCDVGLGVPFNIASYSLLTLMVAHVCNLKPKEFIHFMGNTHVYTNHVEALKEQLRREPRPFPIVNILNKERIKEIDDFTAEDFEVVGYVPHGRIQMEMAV
Description: Inhibitory activity against Toxoplasma gondii dihydrofolate reductase.

Pneumocystis carinii = test: Ratio of inhibitory concentration of rat liver and Pneumocystis carinii DHFR.
Dihydrofolate reductase = target: T2, Dihydrofolate reductase (Rattus norvegicus, UniProt Q920D2)
T2 sequence (Q920D2 whole entry): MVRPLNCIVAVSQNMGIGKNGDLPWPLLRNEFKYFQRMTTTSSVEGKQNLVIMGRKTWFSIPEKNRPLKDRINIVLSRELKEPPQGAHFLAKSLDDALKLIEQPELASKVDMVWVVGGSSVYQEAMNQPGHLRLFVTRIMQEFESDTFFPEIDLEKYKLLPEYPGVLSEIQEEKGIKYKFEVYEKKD
Description: Inhibitory activity against rat liver dihydrofolate reductase.

[2] = pRatio of inhibitory concentration of Rat liver and Pneumocystis carinii DHFR
[3] = Ratio of inhibitory concentration of Rat liver and Pneumocystis carinii DHFR
[4] = Ratio of inhibitory concentration of Rat liver and Toxoplasma gondii DHFR

Structure (SMILES): COc1ccc(N(C)Cc2ccc3nc(N)nc(N)c3n2)cc1
- IC50 [1]: 16 nM
- Selectivity (Pneumocystis carinii): 0.072
- IC50 (Dihydrofolate reductase): 18 nM

Structure (SMILES): CN(Cc1ccc2nc(N)nc(N)c2n1)c1ccc(Cl)cc1Cl
- IC50 [1]: 50 nM
- Selectivity (Pneumocystis carinii): 0.12
- IC50 (Dihydrofolate reductase): 58 nM

Structure (SMILES): COc1ccc(OC)c(N(C)Cc2ccc3nc(N)nc(N)c3n2)c1
- IC50 [1]: 25 nM
- Selectivity (Pneumocystis carinii): 0.24
- IC50 (Dihydrofolate reductase): 50 nM

Structure (SMILES): Nc1nc(N)c2nc(CSc3cccc4ccccc34)ccc2n1
- IC50 [1]: 49 nM
- Selectivity (Pneumocystis carinii): 0.34
- IC50 (Dihydrofolate reductase): 160 nM

Structure (SMILES): COc1cc(NCc2ccc3nc(N)nc(N)c3n2)cc(OC)c1OC
- IC50 [1]: 40 nM
- Selectivity (Pneumocystis carinii): 0.1
- IC50 (Dihydrofolate reductase): 200 nM

Structure (SMILES): CN(Cc1ccc2nc(N)nc(N)c2n1)c1cccc2ccccc12
- IC50 [1]: 18 nM
- Selectivity (Pneumocystis carinii): 0.18
- IC50 (Dihydrofolate reductase): 7.3 nM

Structure (SMILES): Nc1nc(N)c2nc(CNc3c(Cl)cccc3Cl)ccc2n1
- IC50 [1]: 28 nM
- Selectivity [2]: 0.082
- IC50 (Dihydrofolate reductase): 82 nM

Structure (SMILES): COc1ccc(N(C)Cc2ccc3nc(N)nc(N)c3n2)c(OC)c1
- IC50 [1]: 14 nM
- Selectivity (Pneumocystis carinii): 0.1
- IC50 (Dihydrofolate reductase): 16 nM

Structure (SMILES): Nc1nc(N)c2nc(CNc3cc(Cl)c(Cl)c(Cl)c3)ccc2n1
- IC50 [1]: 87 nM
- Selectivity (Pneumocystis carinii): 0.07
- IC50 (Dihydrofolate reductase): 44 nM

Structure (SMILES): COc1cc(N(C)Cc2ccc3nc(N)nc(N)c3n2)cc(OC)c1OC
- Selectivity (Pneumocystis carinii): 0.2

Structure (SMILES): COc1ccc(SCc2cnc3nc(N)nc(N)c3c2C)cc1
- IC50 [1]: 63 nM
- Selectivity (Pneumocystis carinii): 0.93
- IC50 (Dihydrofolate reductase): 520 nM

Structure (SMILES): Nc1nc(N)c2nc(CNc3ccc4ccccc4c3)ccc2n1
- IC50 [1]: 160 nM
- Selectivity [3]: 0.13
- Selectivity [4]: 1.31
- IC50 (Dihydrofolate reductase): 210 nM

Structure (SMILES): Nc1nc(N)c2nc(CNc3ccccc3Cl)ccc2n1
- IC50 [1]: 110 nM
- Selectivity (Pneumocystis carinii): 0.26
- IC50 (Dihydrofolate reductase): 140 nM

Structure (SMILES): Nc1nc(N)c2nc(CNc3c(Cl)cc(Cl)cc3Cl)ccc2n1
- IC50 [1]: 46 nM
- Selectivity (Pneumocystis carinii): 0.29
- IC50 (Dihydrofolate reductase): 570 nM

Structure (SMILES): COc1ccc(OC)c(NCc2ccc3nc(N)nc(N)c3n2)c1
- IC50 [1]: 120 nM
- Selectivity (Pneumocystis carinii): 0.06
- IC50 (Dihydrofolate reductase): 280 nM

Structure (SMILES): CN(Cc1ccc2nc(N)nc(N)c2n1)c1ccccc1
- IC50 [1]: 8.4 nM
- Selectivity (Pneumocystis carinii): 0.08
- IC50 (Dihydrofolate reductase): 24 nM

Structure (SMILES): CN(Cc1ccc2nc(N)nc(N)c2n1)c1cc(Cl)c(Cl)c(Cl)c1
- IC50 [1]: 38 nM
- Selectivity (Pneumocystis carinii): 0.35
- IC50 (Dihydrofolate reductase): 87 nM

Structure (SMILES): Nc1nc(N)c2nc(CNc3ccc(Cl)cc3Cl)ccc2n1
- IC50 [1]: 50 nM
- Selectivity (Pneumocystis carinii): 0.12
- IC50 (Dihydrofolate reductase): 88 nM

Structure (SMILES): C#CCN(Cc1ccc2nc(N)nc(N)c2n1)c1ccc(C(C)=O)cc1
- IC50 [1]: 20 nM
- Selectivity (Pneumocystis carinii): 0.07
- IC50 (Dihydrofolate reductase): 15 nM

Structure (SMILES): COc1ccccc1N(C)Cc1ccc2nc(N)nc(N)c2n1
- IC50 [1]: 26 nM
- Selectivity (Pneumocystis carinii): 0.24
- IC50 (Dihydrofolate reductase): 120 nM

Structure (SMILES): COc1ccc(NCc2ccc3nc(N)nc(N)c3n2)cc1OC
- IC50 [1]: 90 nM
- Selectivity (Pneumocystis carinii): 0.07
- IC50 (Dihydrofolate reductase): 60 nM

Structure (SMILES): COc1cccc(NCc2ccc3nc(N)nc(N)c3n2)c1
- IC50 [1]: 100 nM
- Selectivity (Pneumocystis carinii): 0.12
- IC50 (Dihydrofolate reductase): 200 nM

Structure (SMILES): COc1ccc(NCc2ccc3nc(N)nc(N)c3n2)cc1
- IC50 [1]: 54 nM
- Selectivity (Pneumocystis carinii): 0.09
- IC50 (Dihydrofolate reductase): 73 nM

Structure (SMILES): Nc1nc(N)c2nc(CSc3ccccc3)cnc2n1
- IC50 [1]: 770 nM
- Selectivity (Pneumocystis carinii): 25.9
- IC50 (Dihydrofolate reductase): 246000 nM

Structure (SMILES): CN(Cc1ccc2nc(N)nc(N)c2n1)c1c(Cl)cccc1Cl
- IC50 [1]: 30 nM
- Selectivity (Pneumocystis carinii): 0.28
- IC50 (Dihydrofolate reductase): 48 nM

Structure (SMILES): COc1ccc(N(C)Cc2ccc3nc(N)nc(N)c3n2)cc1OC
- IC50 [1]: 9.8 nM
- Selectivity (Pneumocystis carinii): 0.02
- IC50 (Dihydrofolate reductase): 2.7 nM

Structure (SMILES): CN(Cc1ccc2nc(N)nc(N)c2n1)c1ccc(C(=O)C(F)(F)F)cc1
- IC50 [1]: 46 nM
- Selectivity (Pneumocystis carinii): 0.13
- IC50 (Dihydrofolate reductase): 32 nM

Structure (SMILES): CN(Cc1ccc2nc(N)nc(N)c2n1)c1ccc(Cl)c(Cl)c1
- IC50 [1]: 27 nM
- Selectivity (Pneumocystis carinii): 0.45
- IC50 (Dihydrofolate reductase): 17 nM

Structure (SMILES): CN(Cc1ccc2nc(N)nc(N)c2n1)c1cc(Cl)ccc1Cl
- IC50 [1]: 25 nM
- Selectivity (Pneumocystis carinii): 0.31
- IC50 (Dihydrofolate reductase): 47 nM

Structure (SMILES): COc1cccc(N(C)Cc2ccc3nc(N)nc(N)c3n2)c1
- IC50 [1]: 15 nM
- Selectivity (Pneumocystis carinii): 0.36
- IC50 (Dihydrofolate reductase): 35 nM

Structure (SMILES): Nc1nc(N)c2nc(CNc3ccc(Cl)c(Cl)c3)ccc2n1
- IC50 [1]: 57 nM
- Selectivity (Pneumocystis carinii): 0.13
- IC50 (Dihydrofolate reductase): 54 nM

Structure (SMILES): COc1ccc(NCc2ccc3nc(N)nc(N)c3n2)c(OC)c1
- IC50 [1]: 140 nM
- Selectivity (Pneumocystis carinii): 0.06
- IC50 (Dihydrofolate reductase): 320 nM

Structure (SMILES): Nc1nc(N)c2nc(CSc3ccc4ccccc4c3)ccc2n1
- IC50 [1]: 48 nM
- Selectivity (Pneumocystis carinii): 0.23
- IC50 (Dihydrofolate reductase): 86 nM

Structure (SMILES): CN(Cc1ccc2nc(N)nc(N)c2n1)c1c(Cl)cc(Cl)cc1Cl
- IC50 [1]: 44 nM
- Selectivity (Pneumocystis carinii): 0.43
- IC50 (Dihydrofolate reductase): 52 nM

Structure (SMILES): CC(=O)c1ccc(NCc2ccc3nc(N)nc(N)c3n2)cc1
- IC50 [1]: 27 nM
- Selectivity (Pneumocystis carinii): 0.01
- IC50 (Dihydrofolate reductase): 2.5 nM

Structure (SMILES): Nc1nc(N)c2nc(CNc3cccc4ccccc34)ccc2n1
- IC50 [1]: 26 nM
- Selectivity [3]: 0.17
- Selectivity [4]: 1.54
- IC50 (Dihydrofolate reductase): 40 nM

Structure (SMILES): Nc1nc(N)c2nc(CNc3ccccc3)ccc2n1
- IC50 [1]: 85 nM
- Selectivity (Pneumocystis carinii): 0.15
- IC50 (Dihydrofolate reductase): 260 nM

Structure (SMILES): CN(Cc1ccc2nc(N)nc(N)c2n1)c1ccc2ccccc2c1
- IC50 [1]: 16 nM
- Selectivity (Pneumocystis carinii): 0.14
- IC50 (Dihydrofolate reductase): 7.2 nM

Structure (SMILES): CC(=O)c1ccc(N(C)Cc2ccc3nc(N)nc(N)c3n2)cc1
- IC50 [1]: 15 nM
- Selectivity (Pneumocystis carinii): 0.04
- IC50 (Dihydrofolate reductase): 5.1 nM

Structure (SMILES): Nc1nc(N)c2nc(CSc3ccccc3)ccc2n1
- IC50 [1]: 130 nM
- Selectivity (Pneumocystis carinii): 0.26
- IC50 (Dihydrofolate reductase): 520 nM

Structure (SMILES): COc1ccccc1NCc1ccc2nc(N)nc(N)c2n1
- IC50 [1]: 120 nM
- Selectivity (Pneumocystis carinii): 0.16
- IC50 (Dihydrofolate reductase): 420 nM

Structure (SMILES): Nc1nc(N)c2nc(CNc3cccc(Cl)c3)ccc2n1
- IC50 [1]: 130 nM
- Selectivity (Pneumocystis carinii): 0.07
- IC50 (Dihydrofolate reductase): 140 nM

Structure (SMILES): C#CCN(Cc1ccc2nc(N)nc(N)c2n1)c1ccc(C(=O)C(F)(F)F)cc1
- IC50 [1]: 54 nM
- Selectivity (Pneumocystis carinii): 0.06
- IC50 (Dihydrofolate reductase): 7.5 nM

Structure (SMILES): Nc1nc(N)c2nc(CNc3cc(Cl)ccc3Cl)ccc2n1
- IC50 [1]: 91 nM
- Selectivity (Pneumocystis carinii): 0.13
- IC50 (Dihydrofolate reductase): 200 nM

Structure (SMILES): CN(Cc1ccc2nc(N)nc(N)c2n1)c1cccc(Cl)c1
- Selectivity (Pneumocystis carinii): 0.032

Structure (SMILES): CN(Cc1ccc2nc(N)nc(N)c2n1)c1ccccc1Cl
- IC50 [1]: 15 nM
- Selectivity (Pneumocystis carinii): 0.57
- IC50 (Dihydrofolate reductase): 120 nM
